Test results published in publication PMC8119466, “A screen of FDA-approved drugs identifies inhibitors of protein tyrosine phosphatase 4A3 (PTP4A3 or PRL-3)” (Scientific Reports, 2021).
Where two headings read alike, the source gives them in different places.

Assays:
recombinant PRL-1 = target: T1, recombinant PRL-1 (Homo sapiens, UniProt Q93096); test: In vitro phosphatase assay (DiFMUP hydrolysis), PRL-1; assay type: biochemical; conditions: for % Phosphatase Activity (compared to DMSO) PRL-1: FDA-approved drug screen; for IC50: DiFMUP at KM, read-out: Calculated IC50, PRL-1 phosphatase activity
T1 construct: 6xHis (N, cleaved yes); made in house; host or cells: E. coli One Shot BL21 Star
T1 sequence (Q93096 1-173): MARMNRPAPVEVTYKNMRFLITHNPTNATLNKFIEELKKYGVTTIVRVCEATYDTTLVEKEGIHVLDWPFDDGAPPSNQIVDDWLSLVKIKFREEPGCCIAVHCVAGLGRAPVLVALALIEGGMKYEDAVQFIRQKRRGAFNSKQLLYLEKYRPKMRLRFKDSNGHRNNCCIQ

recombinant PRL-2 = target: T2, recombinant PRL-2 (Homo sapiens, UniProt Q12974); test: In vitro phosphatase assay (DiFMUP hydrolysis), PRL-2; assay type: biochemical; conditions: for % Phosphatase Activity (compared to DMSO) PRL-2: FDA-approved drug screen;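 on all read-outs here: PRL-2 activity read as DiFMUP hydrolysis after 20 min at room temperature with drug, enzyme first pre-reduced at 4 °C for 20 min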
T2 construct: 6xHis (N, cleaved yes); made in house; host or cells: E. coli One Shot BL21 Star
T2 sequence (Q12974 1-167): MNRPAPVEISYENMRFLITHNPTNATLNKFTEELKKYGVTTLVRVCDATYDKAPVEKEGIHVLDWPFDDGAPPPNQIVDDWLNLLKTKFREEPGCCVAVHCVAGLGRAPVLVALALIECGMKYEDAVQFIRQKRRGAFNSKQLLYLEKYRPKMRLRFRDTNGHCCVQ

HEK293T cells [1] = test: Scratch (migration) assay, HEK293T transfected with PRL-3 or empty vector; assay type: cell-based, human; conditions: compared to DMSO; for cellular migration in control cells: HEK293T empty vector, 24 h; for cellular migration in PRL-3 overexpressing cells: HEK293T transfected with PRL-3, 24 h
Experimental: pENTR-PRL-3 (previously described[51]) was cloned into pLKO-CMV-puro using LR clonase (Thermofisher, 11,791,019) according to manufacturer’s directions. pLKO-CMV empty vector (EV) and pLKO-CMV:PRL-3 were transfected into HEK293T using Lipofectamine 3000 (ThermoFisher, L3000015) according to manufacturer’s protocol. Transfected cells were selected with 1 µg/mL puromycin in complete media to establish the cell line, then were maintained under 0.5 µg/mL puromycin in complete media. For PRL-3 knockdown, pLKO.1-scrambled shRNA and pLKO.1-PRL-3 shRNA[51] plasmids were transfected into HCT116 cells using Lipofectamine 3000 (Thermo Fisher, Cat # L3000015) according to the manufacturer’s directions. Cells were selected for 48 h in 1 µg/mL puromycin before use in assays.
(§1) Cells were seeded into duplicate wells of a 48 well plates at a density of 2 × 10^5 cells per well for HEK293T or 4 × 10^5 for HCT116 and SW480. Cells were recovered overnight and were scratched using a p20 pipette tip the following day. Compounds were added at the concentrations indicated. Images were obtained immediately after the scratch and after a 24 h incubation with the drug on an Evos FL inverted microscope (ThermoFisher). The area within the scratch was calculated using ImageJ. The area migrated was measured as the difference in wound area at 0 h and 24 h and the percent change in migration was calculated by dividing the difference in wound area of treatment by the difference in wound area of the control.

SW480 cells = test: Scratch (migration) assay, SW480; assay type: cell-based, human; conditions: 24 h, 100 µM Salirasib or 25 µM Candesartan, vs DMSO
Experimental: as §1

HEK293T cells [2] = test: Click-IT Edu cell proliferation assay, HEK293T; assay type: cell-based, human; conditions: 100 µM Salirasib or 25 µM Candesartan, 24 and 48 hr
Experimental: The cell proliferation assay was performed using the Click-IT Edu cell proliferation kit from (Thermo Fisher, Cat # C10419) according to the manufacturer’s protocol. Briefly, HEK293T, HCT116 and SW480 cells were plated in 6 well dishes at 4 × 10^5 cell seeding density and treated with DMSO, Candesartan and Salirasib at the indicated concentrations. Edu was added 2 h prior to collecting the cells at 24 h and 48 h time points and the assay was performed according to the instructions from the manual. Flow cytometry with AlexaFluor647 conjugated azide dye was used to determine the cellular proliferation and DAPI was used for the DNA content.

phospho-ERK = test: Western blot of phospho-ERK in HCT116 cells; assay type: cell-based, human; conditions: HCT116, 24 hr; 100 µM Salirasib, 25 µM Candesartan
Experimental: Cells were lysed using Qproteome lysis buffer (Qiagen, Cat # 37901), then spun at 14,000 rpm for 10 min at 4 °C. Protein concentration in the supernatant was quantified using BCA assay (Thermo Scientific, Cat # 23227). 30 μg of protein was loaded into each lane of a TGX-stain-free pre-cast 4–20% SDS gel (Biorad, Cat # 4568094), total protein was quantified upon stain-free gel imaging, and protein was transferred onto PVDF membrane using the Trans-Blot Turbo Transfer System (BioRad, Cat # 1704150). Membranes were blocked with 5% milk in 1% TBST for 1 h, and a 1:1000 dilution of Anti-PRL-3 antibody (R&D Biosystems, Cat # MAB3219), 1:5000 phospho-ERK (Cell Signaling, Cat # 19101) or 1:5000 total ERK (Cell Signaling, Cat # 137F5) was added overnight. Following three washes in TBST, secondary HRP-conjugated antibody (GE, Cat # NA9340V) were added at a 1:5000 dilution for 1 h and membranes imaged using Clarity Western ECL Substrate. (BioRad, Cat # 1705061).

CD45 = target: T3, CD45 (Homo sapiens, UniProt P08575); test: PhosphataseProfiler (Eurofins) selectivity panel; assay type: biochemical; conditions: CD45, 25µM
T3 construct: purchased Eurofins PP260
Experimental: (§2) In 384 well plates, 2.5 μM recombinant PRL-1, PRL-2, or PRL-3 was combined with DiFUMP (Life Technologies, Cat # E12020) at the KM of each protein in reaction buffer (20 mM Tris–Cl, pH 7.5, 150 mM NaCl, 10 mM DTT) as previously reported. Briefly, protein was diluted in reaction buffer and allowed to incubate at 4 °C for 20 min to allow for full reduction of the active site. DiFMUP, drug, and protein were added, and plates were incubated for 20 min at room temperature. Fluorescence intensities were measured on a Cytation 5 plate reader (Biotek) at an EX:360 nm and EM:460 nm. Data were normalized to vehicle control and IC50 values were calculated on GraphPad Prism version 8. Inhibition selectivity for PRLs over a panel of other phosphatases was determined using PhosphataseProfiler (Eurofins, Cat # PP260).

Lambda PP = target: T4, Lambda PP (Escherichia phage lambda, UniProt P03772); test: PhosphataseProfiler (Eurofins) selectivity panel; assay type: biochemical; conditions: 25µM
T4 construct: purchased Eurofins PP260
Experimental: as §2

PP2A = test: PhosphataseProfiler (Eurofins) selectivity panel; assay type: biochemical; conditions: 25µM
Experimental: as §2

PTPMEG = target: T5, PTPMEG (Homo sapiens, UniProt P29074); test: PhosphataseProfiler (Eurofins) selectivity panel; assay type: biochemical; conditions: 25µM
T5 construct: purchased Eurofins PP260
Experimental: as §2

PTPMEG2 = target: T6, PTPMEG2 (Homo sapiens, UniProt P43378); test: PhosphataseProfiler (Eurofins) selectivity panel; assay type: biochemical; conditions: PTPMEG2, 25µM
T6 construct: purchased Eurofins PP260
Experimental: as §2

[3] = listed as Candesartan Cilexetil

T6 sequence (P43378 whole entry): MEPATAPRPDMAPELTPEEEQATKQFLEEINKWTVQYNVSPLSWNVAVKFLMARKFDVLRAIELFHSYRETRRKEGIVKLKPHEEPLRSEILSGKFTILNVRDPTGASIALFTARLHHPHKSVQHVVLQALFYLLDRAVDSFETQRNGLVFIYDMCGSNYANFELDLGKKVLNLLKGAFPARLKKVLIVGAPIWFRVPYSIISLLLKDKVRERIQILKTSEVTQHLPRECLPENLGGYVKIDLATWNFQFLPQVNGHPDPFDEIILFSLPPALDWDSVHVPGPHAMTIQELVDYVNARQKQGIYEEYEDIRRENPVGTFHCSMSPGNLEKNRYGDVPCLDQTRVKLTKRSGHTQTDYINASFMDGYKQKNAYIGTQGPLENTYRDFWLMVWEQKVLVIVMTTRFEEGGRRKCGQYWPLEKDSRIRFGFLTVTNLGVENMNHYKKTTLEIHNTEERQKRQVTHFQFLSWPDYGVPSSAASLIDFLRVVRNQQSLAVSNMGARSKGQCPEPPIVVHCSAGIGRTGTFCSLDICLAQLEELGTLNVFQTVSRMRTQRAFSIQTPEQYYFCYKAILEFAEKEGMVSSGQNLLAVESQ
T5 sequence (P29074 whole entry): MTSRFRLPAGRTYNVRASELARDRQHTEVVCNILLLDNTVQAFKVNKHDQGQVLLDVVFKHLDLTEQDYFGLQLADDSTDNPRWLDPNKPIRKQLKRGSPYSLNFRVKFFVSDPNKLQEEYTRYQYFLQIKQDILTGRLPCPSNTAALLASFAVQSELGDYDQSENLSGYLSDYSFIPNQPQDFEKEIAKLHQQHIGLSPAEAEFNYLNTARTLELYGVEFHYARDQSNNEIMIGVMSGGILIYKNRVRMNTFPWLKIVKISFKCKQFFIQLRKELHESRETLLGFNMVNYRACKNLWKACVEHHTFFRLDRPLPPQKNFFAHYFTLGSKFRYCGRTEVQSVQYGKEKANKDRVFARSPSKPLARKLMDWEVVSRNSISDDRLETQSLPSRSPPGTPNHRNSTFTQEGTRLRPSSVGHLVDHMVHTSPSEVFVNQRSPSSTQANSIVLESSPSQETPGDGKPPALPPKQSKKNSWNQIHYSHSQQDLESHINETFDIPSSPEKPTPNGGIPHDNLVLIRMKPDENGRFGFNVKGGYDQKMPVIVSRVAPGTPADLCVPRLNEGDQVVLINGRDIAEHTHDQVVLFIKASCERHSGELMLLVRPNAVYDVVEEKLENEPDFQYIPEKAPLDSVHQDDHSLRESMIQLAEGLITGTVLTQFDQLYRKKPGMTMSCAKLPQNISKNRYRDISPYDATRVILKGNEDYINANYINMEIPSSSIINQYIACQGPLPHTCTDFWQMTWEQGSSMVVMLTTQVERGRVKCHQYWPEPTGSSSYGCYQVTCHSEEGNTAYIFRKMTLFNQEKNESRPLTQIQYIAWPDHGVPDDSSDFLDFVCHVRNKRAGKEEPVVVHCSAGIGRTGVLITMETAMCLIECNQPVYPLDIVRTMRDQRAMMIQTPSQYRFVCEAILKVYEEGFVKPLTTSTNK
T3 sequence (P08575 26-1306): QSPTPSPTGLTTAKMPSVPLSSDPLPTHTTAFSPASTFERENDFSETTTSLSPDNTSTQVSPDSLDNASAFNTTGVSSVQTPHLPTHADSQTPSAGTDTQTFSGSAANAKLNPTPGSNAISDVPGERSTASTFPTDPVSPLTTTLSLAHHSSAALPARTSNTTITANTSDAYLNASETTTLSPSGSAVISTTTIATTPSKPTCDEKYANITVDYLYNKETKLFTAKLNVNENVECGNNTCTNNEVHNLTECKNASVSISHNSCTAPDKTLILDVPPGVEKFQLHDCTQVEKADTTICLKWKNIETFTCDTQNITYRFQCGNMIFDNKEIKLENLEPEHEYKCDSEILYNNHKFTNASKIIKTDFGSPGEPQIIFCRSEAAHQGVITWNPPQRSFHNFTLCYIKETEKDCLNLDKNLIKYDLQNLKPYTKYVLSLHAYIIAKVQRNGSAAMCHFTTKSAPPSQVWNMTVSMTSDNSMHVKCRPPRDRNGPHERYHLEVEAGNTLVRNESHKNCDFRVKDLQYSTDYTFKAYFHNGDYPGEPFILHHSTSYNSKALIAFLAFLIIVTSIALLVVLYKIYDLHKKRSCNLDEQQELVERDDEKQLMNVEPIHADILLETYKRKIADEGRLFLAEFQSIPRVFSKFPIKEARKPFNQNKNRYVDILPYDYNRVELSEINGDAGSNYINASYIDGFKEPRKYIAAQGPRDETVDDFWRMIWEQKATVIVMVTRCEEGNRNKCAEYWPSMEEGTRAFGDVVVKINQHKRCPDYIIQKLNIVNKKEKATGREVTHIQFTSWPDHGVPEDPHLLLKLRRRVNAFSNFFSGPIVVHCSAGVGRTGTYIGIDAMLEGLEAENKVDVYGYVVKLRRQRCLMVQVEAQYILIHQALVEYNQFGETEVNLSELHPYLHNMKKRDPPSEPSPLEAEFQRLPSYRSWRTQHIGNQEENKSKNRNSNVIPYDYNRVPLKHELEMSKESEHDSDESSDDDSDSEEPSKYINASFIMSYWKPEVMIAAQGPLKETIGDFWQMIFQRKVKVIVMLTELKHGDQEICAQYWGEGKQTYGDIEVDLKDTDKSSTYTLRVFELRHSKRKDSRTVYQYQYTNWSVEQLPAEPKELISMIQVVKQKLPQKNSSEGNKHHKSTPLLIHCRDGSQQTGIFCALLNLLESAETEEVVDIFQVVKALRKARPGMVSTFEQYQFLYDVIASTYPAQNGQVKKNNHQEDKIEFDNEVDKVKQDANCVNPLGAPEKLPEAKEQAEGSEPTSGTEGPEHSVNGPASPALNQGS
T4 sequence (P03772 whole entry): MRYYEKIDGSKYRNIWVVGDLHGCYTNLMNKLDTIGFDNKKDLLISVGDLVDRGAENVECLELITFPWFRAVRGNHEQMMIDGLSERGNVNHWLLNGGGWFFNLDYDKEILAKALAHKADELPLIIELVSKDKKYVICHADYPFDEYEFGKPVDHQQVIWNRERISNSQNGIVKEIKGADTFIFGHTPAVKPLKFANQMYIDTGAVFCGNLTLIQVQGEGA

## CCOc1nc2cccc(C(=O)O)c2n1Cc1ccc(-c2ccccc2-c2nnn[nH]2)cc1 [Candesartan]
Recombinant PRL-1
  % Phosphatase Activity (compared to DMSO) PRL-1: 106%
Recombinant PRL-1; [3]
  % Phosphatase Activity (compared to DMSO) PRL-1: 6.33%
Recombinant PRL-1; […] protein
  IC50: 69 ± 8 µM
Recombinant PRL-2
  % Phosphatase Activity (compared to DMSO) PRL-2: 92%
Recombinant PRL-2; [3]
  % Phosphatase Activity (compared to DMSO) PRL-2: 13%
Recombinant PRL-2; […] protein, DiFMUP at KM, read-out: Calculated IC50, PRL-2 phosphatase activity
  IC50: 80 ± 15 µM
HEK293T cells [1]
  cellular migration in control cells: no corresponding reduction in migration
  cellular migration in PRL-3 overexpressing cells: significant inhibition of cellular migration
SW480 cells
  inhibition of migration of SW480 cells: > 30%
HEK293T cells [2]
  cell cycle (EdU staining): did not significantly impact
phospho-ERK
  phospho-ERK levels: decreased phospho-ERK levels
CD45
  Percent Phosphatase Activity (compared to DMSO): 100%
Lambda PP
  Percent Phosphatase Activity (compared to DMSO): 107%
PP2A
  Percent Phosphatase Activity (compared to DMSO): 110%
PTPMEG
  Percent Phosphatase Activity (compared to DMSO): 109%
PTPMEG2
  Percent Phosphatase Activity (compared to DMSO): 97%

## CC(C)=CCC/C(C)=C/CC/C(C)=C/CSc1ccccc1C(=O)O [Salirasib]
Recombinant PRL-1; 2.5 µM protein
  IC50: 53 ± 5 µM
Recombinant PRL-1
  % Phosphatase Activity (compared to DMSO) PRL-1: 26%
Recombinant PRL-2
  % Phosphatase Activity (compared to DMSO) PRL-2: 6%
HEK293T cells [1]
  cellular migration in control cells: no corresponding reduction in migration
  cellular migration in PRL-3 overexpressing cells: significant inhibition of cellular migration
SW480 cells; Homo sapiens, SW480
  inhibition at 100 µM: > 30%
HEK293T cells [2]
  cell cycle (EdU staining): did not significantly impact
phospho-ERK
  phospho-ERK levels: decreased phospho-ERK levels
CD45
  Percent Phosphatase Activity (compared to DMSO): 102%
Lambda PP
  Percent Phosphatase Activity (compared to DMSO): 112%
PP2A
  Percent Phosphatase Activity (compared to DMSO): 107%
PTPMEG
  Percent Phosphatase Activity (compared to DMSO): 107%
PTPMEG2
  Percent Phosphatase Activity (compared to DMSO): 102%
